US20230094952A1, “Method for Culturing Hematopoietic Stem Cells” (Sumitomo Pharma Co., Ltd., priority 2019, published 2023)

How the values were obtained:
[1] = system: human hematopoietic stem cells (CD34-positive cells); experiment: Confirmation test with human cells: 1-week culture of cord blood Lineage-negative CD34-positive cells, flow cytometry; format: cell-based
Description: Collection of Human Cord Blood-Derived Mononuclear Cells Human cord blood-derived mononuclear cells were subjected to removal of erythrocytes and concentration treatment by using EasySep RBC Depletion Reagent (manufactured by […] Technologies Inc.) to obtain a cell population including hematopoietic stem cells.
First, a CD34-positive cell fraction was partially purified from the thus-obtained cell population including hematopoietic stem cells by using an EASYSep Human Cord Blood CD34 Positive Selection Kit II (manufactured by […] Technologies Inc.). The concentrated CD34-positive cells in a cell population enriched with hematopoietic stem cells and progenitor cells were stained with antibodies for the following cell surface markers.
Staining with the antibodies was performed at 4° C., and the cells were incubated for 30 minutes. For staining with the CD34 antibody, the cells were incubated for 90 minutes. Dead cell staining was performed with SYTOX Blue Dead Cell Stain (manufactured by Life Technologies) in accordance with a method recommended by the manufacturer.
Flow cytometry analysis and cell classification (cell sorting) were performed with a FACS Aria III cell sorter (manufactured by BD Biosciences), wherein fractions being Lineage-negative and CD34-positive were regarded as hematopoietic stem cells, and analysis was performed with the software FlowJo (manufactured by Tree Star, Inc.).
The cells after classification were seeded in a 96-well plate. […]
Each of artemether and the compounds of Example 1-23, Example 1-16, and Example 1-7 was prepared with the cell culture medium at nine final concentrations (0.001 μM, 0.003 μM, 0.01 μM, 0.03 μM, 0.1 μM, 0.3 μM, 1 μM, 3 μM, 10 μM), and added to the above human cells seeded after classification to a final volume of 200 μL/well to act thereon. UM171 (35 nM) was added to some of them to examine the presence or absence of synergistic effect. Thereafter, the cells were cultured in a CO2 incubator under conditions of 37° C. and 5% CO2 for 1 week. Viable cell counts and CD34-positive cell counts were analyzed.
After culture, the cells were stained with the antibodies for the surface markers CD34, CD11b, CD14, CD19, CD20, CD235ab, CD3, CD4, CD56, and CD8a, and the visible cell count and the ratio and post-growth cell count of a CD34 fraction (CD34^+, Lin^−) were measured by using a FACS Aria III cell sorter, and analyzed by using FlowJo (BD Biosciences). The CD34 fraction is a fraction including hematopoietic stem cells and multipotent progenitor cells as main components.

[2] = system: human hematopoietic stem cells (CD34-positive cells); experiment: Functional test with human cells: colony assay (CFU-GEMM) after culture; format: cell-based
Method: Each of artemether and the compounds of Example 1-23, Example 1-16, and Example 1-7 was prepared with the cell culture medium at nine final concentrations (0.001 μM, 0.003 μM, 0.01 μM, 0.03 μM, 0.1 μM, 0.3 μM, 1 μM, 3 μM, 10 μM), and added to the above human cells seeded after classification to a final volume of 200 μL/well to act thereon. UM171 (35 nM) was added to some of them to examine the presence or absence of synergistic effect. Thereafter, the cells were cultured in a CO2 incubator under conditions of 37° C. and 5% CO2 for 1 week, collected, and then seeded in a 96-well plate to place one CD34-positive cell in each well by using a FACS Aria III cell sorter, and cultured with a MethoCult H4435 ([…] Technologies Inc.) for 2 weeks. After culture, each well was photographed with an optical microscope (manufactured by KEYENCE CORPORATION), and the colony count was determined by visual observation and the form of each colony was determined by visual observation. Colony Formation Unit-Granulocytes, Erythroids, Macrophages, Megakaryocytes (CFU-GEMM), which are derived from myeloid progenitor cells, the erythroid burst colony-forming cells Burst Forming Unit-Erythroids (BFU-E), the granulocyte/macrophage colony-forming cells Colony Formation Unit-Granulocytes, Macrophages (CFU-GM) were determined on the basis of the forms of colonies, and the numbers were counted.

[3] = UM171 (35 nM) and artemether 0.001 μM
[4] = UM171 (35 nM) and artemether 0.003 μM
[5] = UM171 (35 nM) and artemether 0.01 μM
[6] = UM171 (35 nM) and artemether 0.03 μM
[7] = UM171 (35 nM) and artemether 0.1 μM
[8] = UM171 (35 nM) and artemether 0.3 μM
[9] = UM171 (35 nM) and artemether 1 μM
[10] = compound 0.001 μM, 180 cells before culture, no UM171
[11] = compound 0.003 μM, 180 cells before culture, no UM171
[12] = compound 0.01 μM, 180 cells before culture, no UM171
[13] = compound 0.03 μM, 180 cells before culture, no UM171
[14] = compound 0.1 μM, 180 cells before culture, no UM171
[15] = compound 0.3 μM, 180 cells before culture, no UM171
[16] = compound 1 μM, 180 cells before culture, no UM171
[17] = compound 3 μM, 180 cells before culture, no UM171
[18] = compound 10 μM, 180 cells before culture, no UM171

CO[C@H]1O[C@@H]2O[C@@]3(C)CC[C@H]4[C@H](C)CC[C@@H]([C@H]1C)[C@@]24OO3 [Example 1-30, artemether, reference compound]
CD34-positive cell count [1, 3]: 36 cell | Viable cell count [1, 3]: 301 cell | CD34-positive cell count [1, 4]: 102 cell | Viable cell count [1, 4]: 765 cell | CD34-positive cell count [1, 5]: 43 cell | Viable cell count [1, 5]: 323 cell | CD34-positive cell count [1, 6]: 56 cell | Viable cell count [1, 6]: 216 cell | CD34-positive cell count [1, 7]: 93 cell | Viable cell count [1, 7]: 376 cell | CD34-positive cell count [1, 8]: 9 cell | Viable cell count [1, 8]: 240 cell | CD34-positive cell count [1, 9]: 0 cell | Viable cell count [1, 9]: 31 cell | CD34-positive cell count [1, 10]: 59 cell | Viable cell count [1, 10]: 484 cell | CD34-positive cell count [1, 11]: 88 cell | Viable cell count [1, 11]: 921 cell | CD34-positive cell count [1, 12]: 57 cell | Viable cell count [1, 12]: 498 cell | CD34-positive cell count [1, 13]: 23 cell | Viable cell count [1, 13]: 298 cell | CD34-positive cell count [1, 14]: 45 cell | Viable cell count [1, 14]: 555 cell | CD34-positive cell count [1, 15]: 61 cell | Viable cell count [1, 15]: 550 cell | CD34-positive cell count [1, 16]: 35 cell | Viable cell count [1, 16]: 479 cell | CD34-positive cell count [1, 17]: 26 cell | Viable cell count [1, 17]: 380 cell | CD34-positive cell count [1, 18]: 27 cell | Viable cell count [1, 18]: 250 cell | Colony count (colony) after culture (CFU-GEMM) [2, 3]: 40.1 colony | Colony count (colony) after culture (CFU-GEMM) [2, 4]: 204.0 colony | Colony count (colony) after culture (CFU-GEMM) [2, 5]: 53.8 colony | Colony count (colony) after culture (CFU-GEMM) [2, 6]: 46.8 colony | Colony count (colony) after culture (CFU-GEMM) [2, 7]: 94.0 colony | Colony count (colony) after culture (CFU-GEMM) [2, 8]: 40.0 colony | Colony count (colony) after culture (CFU-GEMM) [2, 9]: 0.0 colony | Colony count (colony) after culture (CFU-GEMM) ([2]; compound 0.001 μM, 1 week culture then 2 weeks MethoCult H4435, no UM171): 40.3 colony | Colony count (colony) after culture (CFU-GEMM) ([2]; compound 0.003 μM, 1 week culture then 2 weeks MethoCult H4435, no UM171): 61.4 colony | Colony count (colony) after culture (CFU-GEMM) ([2]; compound 0.01 μM, 1 week culture then 2 weeks MethoCult H4435, no UM171): 33.2 colony | Colony count (colony) after culture (CFU-GEMM) ([2]; compound 0.03 μM, 1 week culture then 2 weeks MethoCult H4435, no UM171): 34.8 colony | Colony count (colony) after culture (CFU-GEMM) ([2]; compound 0.1 μM, 1 week culture then 2 weeks MethoCult H4435, no UM171): 37.0 colony | Colony count (colony) after culture (CFU-GEMM) ([2]; compound 0.3 μM, 1 week culture then 2 weeks MethoCult H4435, no UM171): 36.7 colony | Colony count (colony) after culture (CFU-GEMM) ([2]; compound 1 μM, 1 week culture then 2 weeks MethoCult H4435, no UM171): 63.9 colony | Colony count (colony) after culture (CFU-GEMM) ([2]; compound 3 μM, 1 week culture then 2 weeks MethoCult H4435, no UM171): 31.7 colony | Colony count (colony) after culture (CFU-GEMM) ([2]; compound 10 μM, 1 week culture then 2 weeks MethoCult H4435, no UM171): 0.0 colony
